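Exposure lasted 48 hours, with cells grown in 96-well plates and compounds tested at five concentrations. TGI: total growth inhibition.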
Assays:
Experiment in all cases: NCI tumour cell line growth inhibition, 48 h
[1] = system: 786-0 renal
[2] = system: A498 renal
[3] = system: CAKI-1 renal
[4] = system: CCRF-CEM leukemia
[5] = system: COLO 205 colon
[6] = system: DU-145 prostate
[7] = system: EKVX NSCLC
[8] = system: HCT-116 colon
[9] = system: HT29 colon
[10] = system: K-562 leukemia
[11] = system: MDA-MB-435
[12] = system: NCI-H226 lung
[13] = system: SK-MEL-28 melanoma
[14] = system: SK-MEL-5 melanoma
[15] = system: SN12C renal
[16] = system: T-47D breast
[17] = system: U251 CNS
[18] = system: UACC-257 melanoma
[19] = system: UO-31 renal
[20] = system: LOX IMVI melanoma

Row | SMILES | TGI [1] | TGI [2] | TGI [3] | TGI [4] | TGI [5] | TGI [6] | TGI [7] | TGI [8] | TGI [9] | TGI [10] | TGI [11] | TGI [12] | TGI [13] | TGI [14] | TGI [15] | TGI [16] | TGI [17] | TGI [18] | TGI [19] | TGI [20]
1 | N#CCCN(CCC#N)c1ccc(C(N=Nc2ccc(Cl)cc2)=Nc2ccc(F)cc2)cc1 | > 100 µM | > 100 µM | > 100 µM | > 100 µM | > 100 µM | > 100 µM | > 100 µM | > 100 µM | > 100 µM | > 100 µM | > 100 µM | > 100 µM | > 100 µM | > 100 µM | > 100 µM | > 100 µM | > 100 µM | > 100 µM | > 100 µM | –
2 | O=C(NNC(=S)NCc1ccccc1)C12CC3CC(CC(C3)C1)C2 | > 100 µM | > 100 µM | – | > 100 µM | 44.1 µM | > 100 µM | – | > 100 µM | > 100 µM | > 100 µM | > 100 µM | > 100 µM | > 100 µM | – | > 100 µM | > 100 µM | > 100 µM | > 100 µM | > 100 µM | > 100 µM
3 | O=C(O)C12C3CCC(O3)C1(C(=O)O)C1CCC2O1 (stereo unspecified) | > 100 µM | > 100 µM | > 100 µM | > 100 µM | > 100 µM | > 100 µM | – | > 100 µM | > 100 µM | > 100 µM | > 100 µM | > 100 µM | > 100 µM | > 100 µM | > 100 µM | > 100 µM | > 100 µM | > 100 µM | > 100 µM | > 100 µM
4 | CN1C(=O)C23CCCCC2CC1(c1ccccc1)S3 (stereo unspecified) | > 100 µM | > 100 µM | > 100 µM | – | > 100 µM | > 100 µM | > 100 µM | > 100 µM | > 100 µM | > 100 µM | > 100 µM | > 100 µM | > 100 µM | > 100 µM | > 100 µM | > 100 µM | > 100 µM | 54.5 µM | > 100 µM | > 100 µM
5 | CC(=O)Oc1c(C)c2c(c3ccccc13)OC(C)(C)C2 | 34.3 µM | 38.2 µM | 40.3 µM | > 100 µM | 38.5 µM | 31 µM | 34 µM | 42.9 µM | 35 µM | > 100 µM | 33.2 µM | 40.7 µM | 32.9 µM | 22.9 µM | 34.5 µM | 60 µM | 33.4 µM | 24.6 µM | 33.1 µM | –
6 | O=[N+]([O-])c1sc2ccc(Cl)cc2c1Nc1ccc(Cl)cc1 | > 100 µM | > 100 µM | – | > 100 µM | > 100 µM | > 100 µM | > 100 µM | – | > 100 µM | > 100 µM | > 100 µM | > 100 µM | > 100 µM | > 100 µM | > 100 µM | > 100 µM | > 100 µM | – | > 100 µM | > 100 µM
7 | N#Cc1c(-c2ccccc2)c(C#N)c(=O)n(C2OC(CO)C(O)C(O)C2O)c1S (stereo unspecified) | > 100 µM | > 100 µM | > 100 µM | > 100 µM | – | > 100 µM | – | – | > 100 µM | > 100 µM | > 100 µM | > 100 µM | > 100 µM | > 100 µM | > 100 µM | > 100 µM | – | > 100 µM | > 100 µM | > 100 µM
8 | N#Cc1c(N)c(C#N)c2c(c1-c1ccc(Cl)cc1)COc1ccccc1-2 | 15.1 µM | 37.7 µM | – | 33 µM | > 100 µM | 68.6 µM | 28.5 µM | 40.7 µM | 40.3 µM | 35.3 µM | 99.4 µM | 98.9 µM | 37.4 µM | 71.6 µM | 31 µM | 58.2 µM | 32.7 µM | > 100 µM | 13 µM | > 100 µM
9 | COC(=O)C1C(C(=O)OC)C1(Br)CBr (stereo unspecified) | 36.3 µM | > 100 µM | 31.6 µM | – | 41 µM | > 100 µM | 90.3 µM | > 100 µM | 63.3 µM | – | > 100 µM | > 100 µM | > 100 µM | > 100 µM | 79.4 µM | 50.4 µM | > 100 µM | > 100 µM | 34.9 µM | 51.5 µM
10 | COCCOCCOCCOc1ccc(C(C#N)N(CCc2ccccc2)C(=O)c2cc(C(=O)N(CCc3ccccc3)C(C#N)c3ccc(OCCOCCOCCOC)cc3)cc(C(=O)N(CCc3ccccc3)C(C#N)c3ccc(OCCOCCOCCOC)cc3)c2)cc1 (stereo unspecified) | > 100 µM | > 100 µM | – | > 100 µM | > 100 µM | > 100 µM | > 100 µM | > 100 µM | > 100 µM | > 100 µM | > 100 µM | > 100 µM | > 100 µM | > 100 µM | > 100 µM | > 100 µM | > 100 µM | > 100 µM | > 100 µM | > 100 µM
11 | CN(C)c1ccc(C(=NN)c2ccc(N(C)C)cc2)cc1 | 36.5 µM | > 81.7 µM | > 51 µM | 3.41 µM | – | > 35 µM | > 100 µM | > 100 µM | > 21.8 µM | > 56.9 µM | 0.298 µM | > 62.4 µM | > 100 µM | > 100 µM | > 100 µM | > 100 µM | 9.21 µM | 0.813 µM | > 100 µM | > 100 µM

— PubChem BioAssay (NCI)
